{
  "source": "patent US20220144913A1",
  "about": "“PERSONALIZED AND TIMED RELEASE OF BIOMOLECULES” (The General Hospital Corporation, priority 2019, published 2022)",
  "key": {"[1]": {"tested_on": "NFkB", "assay": "NFkB-GLuc reporter stimulation in HepG2 hepatocytes", "format": "cell-based", "settings": "two doses of stimulant; media sampled after 12 hours", "description": "HepG2 hepatocytes were engineered with the NFkB-GLuc construct and stimulated with either inflammatory LPS or IL-1b at two different doses."}, "[2]": {"tested_on": "circadian clocks of Jurkat human leukemic T-cells", "assay": "KL001 disruption of circadian clock driven GLUC secretion, continuous flow", "format": "cell-based", "settings": "20 μM KL001 for 24 hours before dexamethasone synchronization", "description": "Luminescence was recorded by the device as relative luminescence units (RLU). Continuous monitoring of plasma luciferase from mice is described in a separate section below. To monitor continuous secretion of luciferase from cells in vitro over time, cells were seeded onto a custom-made constant flow cell culture and collection device. For each experiment, 16×10^6 cells in approximately 2 ml of media were injected into a tube-like bag made from air permeable material (Rogers Corporation HT-6240 Transparent 0.010″) with approximate dimensions of 20 cm in length and 0.6 cm in diameter. We have previously shown that vessels made from this material are optimal for the expansion of human T-cells (Li et al. 2018). Silicone tubing (Platinum LS14 Masterflex cat #96410-14) was used to connect the cell containing vessel to media filled syringes operated by a PHD 2000 syringe pump (Harvard Apparatus) and to a Biologic Biofrac fraction collector (Biorad). Cells were allowed to settle for 3-4 hours prior to flowing media at 3.8 ml/hour. […] For circadian experiments, cells were synchronized with 10 μM dexamethasone (Sigma cat #D4902) for 30 minutes, washed 3 times with PBS and seeded onto a continuous flow vessel either immediately or after a 24-hour incubation. […]"}, "[3]": {"settings": "in vivo; cited from earlier work"}, "[4]": {"settings": "in vivo; cited from earlier work", "remark": "listed apart in the source"}, "[5]": {"tested_on": "DS-1 cells", "assay": "IL-6-dependent proliferation of DS-1 cells in sGP130 conditioned media", "format": "cell-based", "settings": "conditioned media with secreted sGP130 from cells engineered with EF1α-sGP130", "description": "Media from cells engineered with EF1a-sGP130 constructs was sampled, along with cell lysate, showing that measurable protein levels increase over time (FIG. 15A).\nMedia from cells engineered with EF1α-sGP130 constructs was sampled, along with cell lysate, showing that measurable protein levels increase over time (FIG. 15A)."}},
  "note": "Entries after “also recorded” stand apart in the source; their conditions may differ. Like-named read-outs stand apart in the source and are kept apart here.",
  "data": [
    {"molecule": "bacterial lipopolysaccharide [LPS]", "values": [
      {"measurement": "relative GLuc signal", "setting": "[1]", "result": "increased dose dependently"}
    ]},
    {"molecule": "CS(=O)(=O)N(Cc1ccco1)CC(O)Cn1c2ccccc2c2ccccc21", "note": "(stereo not shown) [KL001]", "values": [
      {"measurement": "effect on dynamic nature of Circa2 driven GLUC secretion", "setting": "[2]; stable Jurkat Circa2-GLUC cells", "result": "severely disrupting the dynamic nature; also recorded: abolishes dynamic nature"},
      {"measurement": "effect on EF1α driven GLUC secretion", "setting": "[2]; stable Jurkat EF1α-GLUC cells", "result": "little to no effect"}
    ]},
    {"molecule": "parathyroid hormone [PTH]", "values": [
      {"measurement": "half-life", "setting": "[3]", "result": "around 5 minutes"}
    ]},
    {"molecule": "IL-1b: cytokine stimulant acting on a different response element (MAPK)", "values": [
      {"measurement": "relative GLuc signal", "setting": "[1]", "result": "not stimulated"}
    ]},
    {"molecule": "glucagon-like petide-1 (HAEGTFTSDVSSYLEGQAAKEEFIIAWLVKGRG; listed as Homo sapiens) [GLP1]", "values": [
      {"measurement": "half-life", "setting": "[4]", "result": 30, "unit": "min"}
    ]},
    {"molecule": "sGP130: soluble GP130 secreted from cells engineered with EF1α-sGP130 constructs; inhibits IL-6 signaling (protein) QLLEPCGYIYPEFPVVQRGSNFTAICVLKEACLQHYYVNASYIVWKTNHAAVPREQVTVINRTTSSVTFTDVVLPSVQLTCNILSFGQIEQNVYGVTMLSGFPPDKPTNLTCIVNEGKNMLCQWDPGRETYLETNYTLKSEWATEKFPDCQSKHGTSCMVSYMPTYYVNIEVWVEAENALGKVSSESINFDPVDKVKPTPPYNLSVTNSEELSSILKLSWVSSGLGGLLDLKSDIQYRTKDASTWIQVPLEDTMSPRTSFTVQDLKPFTEYVFRIRSIKDSGKGYWSDWSEEASGTTYEDRPSRPPSFWYKTNPSHGQEYRSVRLIWKALPLSEANGKILDYEVILTQSKSVSQTYTVTGTELTVNLTNDRYVASLAARNKVGKSAAAVLTIPSPHVTAAYSVVNLKAFPKDNLLWVEWTPPPKPVSKYILEWCVLSENAPCVEDWQQEDATVNRTHLRGRLLESKCYQITVTPVFATGPGGSESLKAYLKQAAPARGPTVRTKKVGKNEAVLAWDQIPVDDQNGFIRNYSISYRTSVGKEMVVHVDSSHTEYTLSSLSSDTLYMVRMAAYTDEGGKDGPEFTFTTPKFAQGEIE", "values": [
      {"measurement": "proliferation of DS-1 cells", "setting": "[5]", "result": "proliferation is suppressed; also recorded: suppress IL-6-dependent proliferation"}
    ]}
  ]
}
